Residues, ends and D or L forms follow the SMILES beside them.
Assay: not given
Conditions: not given

Row | SMILES | logP
1 | COc1ccnc(C#N)n1 | 0.86
2 | CCC(C)NC(=O)C(=Cc1ccccc1)NC(=O)c1ccccc1 (configuration not stated) | 2.61
3 | C[C@]1(O)CC[C@H]2[C@@H]3CCC4=CC(=O)CC[C@]4(C)[C@@]3(F)[C@@H](O)C[C@@]21C | 2.38
4 | CCSC(=O)Oc1cccc2cccnc12 | 2.74
5 | CCC(C)NC(=O)C=C(c1ccccc1)c1ccc(Cl)cc1 (configuration not stated) | 4.11
6 | CCC(C)NC(=O)C(C)=Cc1ccc(Cl)cc1 (configuration not stated) | 3.63
7 | CC(=O)Nc1ccc2nccnc2c1 | 1
8 | O=NN(CCCl)C(=O)Nc1ccccc1 | 2.49
9 | CCC(C)NC(=O)C=C(N)c1ccc(Cl)cc1 (configuration not stated) | 2.85
10 | CCC(C)NC(=O)C(=Cc1ccccc1)NC(C)=O (configuration not stated) | 1.76
11 | CC(=O)Nc1cccc2nccnc12 | 1.06
12 | FC(F)(F)CN(CC(F)(F)F)c1ccc(Br)cc1 | 4.7
13 | O=NN(CCCl)C(=O)NC1CCCCCCCCCCC1 | 5.64
14 | CCOC(=O)c1n[nH]c2ccc(CC)cc2c1=O | 2.01
15 | [O-][n+]1cc(-c2ccccc2)ncc1-c1ccccc1 | 3.27
16 | CCC(C)c1cccc(C(C)CC)c1O (configuration not stated) | 4.38
17 | CCC(C)NC(=O)C(=Cc1ccccc1)SC (configuration not stated) | 3.53
18 | COc1cccc(NC(=O)N(CCCl)N=O)c1 | 2.66
19 | CC12CC3(C)CC(C)(C1)CC(NC(=O)N(CCCl)N=O)(C2)C3 | 5.75
20 | CC(=O)Nc1cnc2ccccc2n1 | 1.53
21 | C[C@]12CCC(=O)C=C1CC[C@@H]1[C@@H]2C(=O)C[C@@]2(C)[C@H]1CC[C@]2(O)C(=O)CO | 1.64
22 | COc1cc(S(C)=O)ccc1-c1cn2cccnc2n1 (configuration not stated) | 0.64
23 | CCCC(=CC(=O)NC(C)CC)c1ccc(Cl)cc1 (configuration not stated) | 4.34
24 | CCC(C)c1cccc(C(C)C)c1O (configuration not stated) | 3.85
25 | FC(F)(F)CN(CC(F)(F)F)c1ccccc1 | 3.69
26 | CCC(C)NC(=O)C(C)=Cc1ccccc1 (configuration not stated) | 3.08
27 | O=NN(CCCl)C(=O)Nc1ccc(Cl)cc1 | 3.16
28 | CCCCOc1ccc(O)cc1 | 2.9

Assay: method code SF, from Hansch, C. & Leo, A. (1987). Log P database [Dataset]. Pomona College Medicinal Chemistry Project.
Conditions: not given

Row | SMILES | logP
29 | CCOC(=O)c1cccnc1 | 1.34
30 | CC(=O)c1csc2ccccc12 | 2.78
31 | CC1=Nc2ccc(I)cc2S(=O)(=O)N1 | 1.61
32 | O=C(O)c1ccc(C(F)(F)F)cc1 | 3.1
33 | NC(=O)CF | -1.05
34 | NC(=O)[C@H](Cc1ccccc1)NC(=O)[C@@H](N)Cc1ccccc1 (H-Phe-Phe-NH2) | 1.13
35 | O[C@@H]1CCCC[C@H]1O | 0.08
36 | CC(=O)Nc1ccccc1Br | 1.4
37 | O=C(O)COc1ccc(Cl)c(Br)c1 | 2.75
38 | c1ccc2c(c1)Cc1ccccc1C2 | 4.25
39 | O=Cc1cccc(C(F)(F)F)c1 | 2.47
40 | CCCCNC(N)=O | 0.41
41 | O=C1C[C@@H]2OCC=C3CN4CC[C@]56c7ccccc7N1[C@H]5[C@H]2[C@H]3C[C@H]46 | 1.93
42 | CC1(C)O[C@@H]2C[C@H]3[C@@H]4CCC5=CC(=O)C=C[C@]5(C)[C@@]4(F)[C@@H](O)C[C@]3(C)[C@]2(C(=O)CO)O1 | 2.53
43 | CC(=O)N(C)/N=N/c1ccc(F)cc1 | 2.77
44 | CC(=O)Nc1ccccc1C(F)(F)F | 1.11
45 | O=[N+]([O-])c1ccc(O[C@@H]2O[C@H](CO)[C@@H](O[C@H]3O[C@H](CO)[C@@H](O)[C@H](O)[C@H]3O)[C@H](O)[C@H]2O)cc1 | -1.39

Row | SMILES | logP
46 | CCC(=O)c1ccncc1 | 0.77
47 | CCC(C)NC(=O)C(=Cc1ccccc1)c1ccccc1 (configuration not stated) | 4.05
48 | O=C(Nc1ccc(Cl)c(Cl)c1)C(F)(F)F | 3.9
49 | CC1=Nc2c(I)cc(Cl)cc2S(=O)(=O)N1 | 1.81
50 | FC(F)OC(Cl)C(F)(F)F (configuration not stated) | 2.06
51 | CN(C)C(=O)Cc1ccsc1 | 0.65
52 | CCOP(=O)(N=C1SCC(C)S1)OCC (configuration not stated) | 1.04
53 | CN(C)C(=S)NCc1ccccc1 | 1.59
54 | NC(=O)NCc1ccccc1 | 0.73
55 | CCC(=O)OCCOc1ccc(C=NO)cc1OC | 1.52
56 | CCCCN(C)N=Nc1cn([C@@H]2O[C@H](CO)[C@@H](O)[C@H]2O)c(=O)n(C)c1=O | -0.45
57 | CCc1ccco1 | 2.4
58 | CCCCCCOC(=O)c1ccc(O)cc1 | 4.35
59 | CCOC(=O)CC(=O)C=Cc1cccc(C)c1 | 2.8
60 | NC(=O)c1ccc(Cl)cc1 | 1.53
61 | CN(C)C#N | -0.15

Same assay, conditions: pH 3.0

Row | SMILES | logD
62 | Cn1nnnc1SCC1=C(C(=O)O)N2C(=O)C(NC(=O)Cc3cccs3)C2SC1 (configuration not stated) | 0

Same assay, conditions: pH 7.0

Row | SMILES | logD
63 | CC(=O)Nc1cccc(OC(C)=O)c1 | 1.03
64 | CS(=O)(=O)c1ccc(Cl)cc1 | 1.06

Same assay, conditions: pH 7.4

Row | SMILES | logD
65 | Cc1c(N(C)C)c(=O)n(C)c(=O)n1-c1ccc(Cl)cc1 | 2.32
66 | Cc1c(N(C)C)c(=O)[nH]c(=O)n1-c1ccccc1 | 1.4

Same assay, conditions: pH 12.0

Row | SMILES | logD
67 | CCCC1CC(C(=O)NC(C(C)Cl)C2OC(SCC)C(O)C(O)C2O)N(CC)C1 (configuration not stated) | 3.18

Source: the SangsterLogP compilation
